Experimental data reported in the supplement of paper PMC11061612.

Experiments:
Test in all cases: combination Emax (second highest fraction inhibited in the dose matrix, 72 h); higher = more inhibition; extreme values may be limits of the assay
[1] = system: BL-41 (Burkitt's Lymphoma)
In short: (§1)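 After 24 hours at 37°C and 5% CO2 in 1536-well plates, cells in DMEM/F12 or RPMI plus 10% FBS received two-drug dose matrices for 72 hours. Viability came from CellTiter-Glo 2.0 luminescence and was scaled as inhibition, anchored at 0 by vehicle wells and at 1 by blank wells. Combination Emax is taken as the second-highest inhibition in the matrix, and Bliss excess as the observed combination effect less EA + EB − EA·EB, with EA and EB the single-agent effects.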

CHP-212 (Neuroblastoma) = system: CHP-212 (Neuroblastoma)
In short: as §1

[2] = system: COLO-678 (Colorectal Carcinoma)
In short: as §1

ES1 (Ewing's Sarcoma) = system: ES1 (Ewing's Sarcoma)
In short: as §1

ES8 (Ewing's Sarcoma) = system: ES8 (Ewing's Sarcoma)
In short: as §1

[3] = system: GR-ST (B-Lymphoblastic Leukemia)
In short: as §1

[4] = system: HDQ-P1 (Breast Carcinoma)
In short: as §1

[5] = system: K-562 (Chronic Myelogenous Leukemia)
In short: as §1

[6] = system: KARPAS-45 (T-Lymphoblastic Leukemia)
In short: as §1

[7] = system: KCL-22 (Chronic Myelogenous Leukemia)
In short: as §1

[8] = system: KM12 (Colorectal Carcinoma)
In short: as §1

LN-18 (Glioblastoma) = system: LN-18 (Glioblastoma)
In short: as §1

MEL-JUSO (Melanoma) = system: MEL-JUSO (Melanoma)
In short: as §1

[9] = system: NCI-H1792 (Lung Adenocarcinoma)
In short: as §1

[10] = system: P12-ICHIKAWA (T-Lymphoblastic Leukemia)
In short: as §1

[11] = system: PANC-08-13 (Pancreatic Carcinoma)
In short: as §1

[12] = system: SR (Other Blood Carcinomas)
In short: as §1

[13] = system: SW1417 (Colorectal Carcinoma)
In short: as §1

U251 (Low Grade Glioma) = system: U251 (Low Grade Glioma)
In short: as §1

SMILES	combination Emax [1]	combination Emax (CHP-212 (Neuroblastoma))	combination Emax [2]	combination Emax (ES1 (Ewing's Sarcoma))	combination Emax (ES8 (Ewing's Sarcoma))	combination Emax [3]	combination Emax [4]	combination Emax [5]	combination Emax [6]	combination Emax [7]	combination Emax [8]	combination Emax (LN-18 (Glioblastoma))	combination Emax (MEL-JUSO (Melanoma))	combination Emax [9]	combination Emax [10]	combination Emax [11]	combination Emax [12]	combination Emax [13]	combination Emax (U251 (Low Grade Glioma))
COc1nnc2ccc(N3CCC(c4ccc(OCCN5CCN(C)C(=O)[C@H]5C)cc4)CC3)nn12 [AZD5153] + C=CCn1c(=O)c2cnc(Nc3ccc(N4CCN(C)CC4)cc3)nc2n1-c1cccc(C(C)(C)O)n1 [AZD1775] (first compound max 1 µM, partner max 1 µM)	1	0.958	0.531	0.686	0.779	0.832	0.523	0.616	1	0.927	0.853	0.649	0.491	0.83	1	0.679	0.96	0.601	0.799
COc1nnc2ccc(N3CCC(c4ccc(OCCN5CCN(C)C(=O)[C@H]5C)cc4)CC3)nn12 [AZD5153] + CC1(C)CCC(CN2CCN(c3ccc(C(=O)NS(=O)(=O)c4ccc(NCC5CCOCC5)c([N+](=O)[O-])c4)c(Oc4cnc5[nH]ccc5c4)c3)CC2)=C(c2ccc(Cl)cc2)C1 [Venetoclax] (first compound max 1 µM, 7x7, partner max 1 µM)	0.87	0.885	0.408	0.482	0.719	0.788	0.325	0.437	1	0.666	0.643	0.638	0.215	0.676	0.932	0.625	0.749	0.463	0.449
COc1nnc2ccc(N3CCC(c4ccc(OCCN5CCN(C)C(=O)[C@H]5C)cc4)CC3)nn12 [AZD5153] + CCN(CCO)CCCOc1ccc2c(Nc3cc(CC(=O)Nc4cccc(F)c4)[nH]n3)ncnc2c1 [AZD2811] (first compound max 1 µM, 7x7, partner max 1 µM)	0.874	0.964	0.506	0.612	0.994	0.818	0.431	0.517	1	0.68	0.66	0.632	0.37	0.668	1	0.656	0.913	0.477	0.661
COc1nnc2ccc(N3CCC(c4ccc(OCCN5CCN(C)C(=O)[C@H]5C)cc4)CC3)nn12 [AZD5153] + CN(CC[C@H](CSC1=CC=CC=C1)NC2=C(C=C(C=C2)S(=O)(=O)NC(=O)C3=CC=C(C=C3)N4CCC(CC4)[C@H](C5=CC=CC=C5C6=CC=C(C=C6)Cl)O)S(=O)(=O)C(F)(F)F)CCO [AZD4320] (first compound max 1 µM, 7x7, partner max 1 µM)	–	0.896	0.459	–	–	–	0.967	–	1	0.963	0.648	0.605	0.3	–	1	0.876	–	–	0.505
COc1nnc2ccc(N3CCC(c4ccc(OCCN5CCN(C)C(=O)[C@H]5C)cc4)CC3)nn12 [AZD5153] + C[C@@H]1COCCN1C2=NC(=NC(=C2)C3(CC3)[S@](=N)(=O)C)C4=C5C=CNC5=NC=C4 [AZD6738] (first compound max 1 µM, 7x7, partner max 10 µM)	1	0.967	0.484	0.918	0.907	0.846	0.571	0.821	1	0.978	0.88	0.815	0.502	0.805	1	0.831	0.937	0.662	0.836
COc1nnc2ccc(N3CCC(c4ccc(OCCN5CCN(C)C(=O)[C@H]5C)cc4)CC3)nn12 [AZD5153] + Cc1c2c(nn1C)CSCc1cc(n(C)n1)CSc1cc(c3ccccc3c1)OCCCc1c(C(=O)O)n(C)c3c-2c(Cl)ccc13 [AZD5991] (first compound max 1 µM, 7x7, partner max 1 µM)	1	1	0.51	0.955	0.891	0.798	0.412	0.5	1	0.902	0.648	0.616	0.306	0.877	1	0.825	0.968	0.459	0.65
COc1nnc2ccc(N3CCC(c4ccc(OCCN5CCN(C)C(=O)[C@H]5C)cc4)CC3)nn12 [AZD5153] + Cn1cnc2c(F)c(Nc3ccc(Br)cc3Cl)c(C(=O)NOCCO)cc21 [Selumetinib] (first compound max 1 µM, 7x7, partner max 10 µM)	0.863	0.989	0.615	0.458	0.681	0.782	0.431	0.469	1	0.957	0.786	0.721	0.59	0.78	0.99	0.805	0.675	0.778	0.592
NC1(C(=O)N[C@@H](CCO)c2ccc(Cl)cc2)CCN(c2ncnc3[nH]ccc23)CC1 [Capivasertib] + CC(=O)c1c(C)c2cnc(Nc3ccc(N4CCNCC4)cn3)nc2n(C2CCCC2)c1=O [Palbociclib] (first compound max 10 µM, 7x7, partner max 10 µM)	0.419	0.556	0.354	0.765	0.64	0.75	0.302	0.257	0.982	0.612	0.853	0.731	0.518	0.553	0.739	0.308	0.844	0.269	0.441
NC1(C(=O)N[C@@H](CCO)c2ccc(Cl)cc2)CCN(c2ncnc3[nH]ccc23)CC1 [Capivasertib] + CC(C)n1c(=O)n(C)c2cnc3cc(F)c(-c4ccc(OCCCN5CCCCC5)nc4)cc3c21 [AZD1390] (first compound max 10 µM, 7x7, partner max 0.3 µM)	0.297	0.262	0.146	0.452	0.545	0.611	0.215	0.33	0.581	0.266	0.755	0.432	0.164	0.179	0.489	0.242	0.361	0.276	0.284
NC1(C(=O)N[C@@H](CCO)c2ccc(Cl)cc2)CCN(c2ncnc3[nH]ccc23)CC1 [Capivasertib] + CCN(CCO)CCCOc1ccc2c(Nc3cc(CC(=O)Nc4cccc(F)c4)[nH]n3)ncnc2c1 [AZD2811] (first compound max 10 µM, 7x7, partner max 1 µM)	0.706	0.749	0.222	0.905	1	0.702	0.321	0.245	0.979	0.472	0.77	0.597	0.274	0.34	1	0.329	0.957	0.278	0.444
NC1(C(=O)N[C@@H](CCO)c2ccc(Cl)cc2)CCN(c2ncnc3[nH]ccc23)CC1 [Capivasertib] + COc1nnc2ccc(N3CCC(c4ccc(OCCN5CCN(C)C(=O)[C@H]5C)cc4)CC3)nn12 [AZD5153] (first compound max 10 µM, 7x7, partner max 1 µM)	0.974	0.932	0.396	0.694	0.798	0.832	0.416	0.528	1	0.792	0.847	0.779	0.36	0.537	0.994	0.668	0.769	0.482	0.578
CC(=O)c1c(C)c2cnc(Nc3ccc(N4CCNCC4)cn3)nc2n(C2CCCC2)c1=O [Palbociclib] + CN(CC[C@H](CSC1=CC=CC=C1)NC2=C(C=C(C=C2)S(=O)(=O)NC(=O)C3=CC=C(C=C3)N4CCC(CC4)[C@H](C5=CC=CC=C5C6=CC=C(C=C6)Cl)O)S(=O)(=O)C(F)(F)F)CCO [AZD4320] (first compound max 10 µM, 7x7, partner max 1 µM)	–	0.829	0.354	–	–	–	0.677	–	1	0.82	0.768	0.517	0.356	–	1	0.384	–	–	0.294
C[C@@H](c1ccc2nccn2c1)n1nnc2ncc(-c3cnn(C)c3)nc21 [Savolitinib] + CN(CC[C@H](CSC1=CC=CC=C1)NC2=C(C=C(C=C2)S(=O)(=O)NC(=O)C3=CC=C(C=C3)N4CCC(CC4)[C@H](C5=CC=CC=C5C6=CC=C(C=C6)Cl)O)S(=O)(=O)C(F)(F)F)CCO [AZD4320] (first compound max 1 µM, 7x7, partner max 1 µM)	–	0.178	0.226	–	–	–	0.591	–	0.976	0.268	0.139	0.163	0.257	–	1	0.394	–	–	0.176
